In patent US20250346931A1, “METHODS FOR PRODUCING HALOGENATED COMPOUNDS” (BIGELOW LABORATORY FOR OCEAN SCIENCES, priority 2022, published 2025):
Where two headings read alike, the source gives them in different places.

Assays:
[1] = test system: rumen-derived microbial communities; assay: Inhibition of methane production in rumen-derived microbial culture; format: cell-based, dairy cattle; details: for IC50: Bos taurus, read-out: concentration giving 50% suppression of methane production
Experimental: FIG. 5 illustrates the production and testing process of small organic halogenated compounds for inhibition of methanogenesis. In this example, the small organic halogenated compounds produced by VBPO are incubated in a microbial culture system derived from rumen fluid obtained from dairy cattle, to determine their relative abilities at inhibiting methane production. Briefly, 1,1-dibromoacetone, co-product bromoform and derivative dibromomethane, were separately added to the culture systems. The rate of methane production was monitored in each reaction (FIGS. 6A-6C).

[2] = ciVCPO reaction velocity with PAA or H2O2 as peroxide source, Michaelis-Menten fit; format: biochemical
Excerpt: This Example describes a method for utilizing peracetic acid as a substrate for production of small, halogenated organic compounds in lieu of hydrogen peroxide using ciVCPO. PAAM is a readily available source of peracetic acid, consisting of 32% w/v peracetic acid and 6% w/v hydrogen peroxide. As peracetic acid is not an efficient two electron reductant, and unlike hydrogen peroxide, cannot produce oxygen in the presence of hypochlorous acid and catalytic quantities of chloride ions, hydrogen peroxide must be removed to avoid oxygen production employing the enzyme catalase, derived from bovine liver.
The reaction velocity is fitted according to Michaelis-Menten kinetics to give v=f([PAA] or [H2O2]).

[3] = rumen-derived microbial communities

CC(=O)C(Br)Br [1,1-dibromoacetone]
IC50 [1]: 125000 nM | relative effectiveness for inhibiting methane production among compounds screened ([1]; compared with bromoform and dibromomethane): least effective

BrC(Br)Br [bromoform, reference compound]
IC50 [1, 3]: 200 nM

BrCBr [dibromomethane, reference compound]
IC50 [1, 3]: 150 nM

B1: ciVCPO: vanadium chloroperoxidase from Curvularia inaequalis produced in Pichia pastoris (protein, UniProt P49053 1-609, looked up)
Vanadium chloroperoxidase: MGSVTPIPLPKIDEPEEYNTNYILFWNHVGLELNRVTHTVGGPLTGPPLSARALGMLHLAIHDAYFSICPPTDFTTFLSPDTENAAYRLPSPNGANDARQAVAGAALKMLSSLYMKPVEQPNPNPGANISDNAYAQLGLVLDRSVLEAPGGVDRESASFMFGEDVADVFFALLNDPRGASQEGYHPTPGRYKFDDEPTHPVVLIPVDPNNPNGPKMPFRQYHAPFYGKTTKRFATQSEHFLADPPGLRSNADETAEYDDAVRVAIAMGGAQALNSTKRSPWQTAQGLYWAYDGSNLIGTPPRFYNQIVRRIAVTYKKEEDLANSEVNNADFARLFALVDVACTDAGIFSWKEKWEFEFWRPLSGVRDDGRPDHGDPFWLTLGAPATNTNDIPFKPPFPAYPSGHATFGGAVFQMVRRYYNGRVGTWKDDEPDNIAIDMMISEELNGVNRDLRQPYDPTAPIEDQPGIVRTRIVRHFDSAWELMFENAISRIFLGVHWRFDAAAARDILIPTTTKDVYAVDNNGATVFQNVEDIRYTTRGTREDPEGLFPIGGVPLGIEIADEIFNNGLKPTPPEIQPMPQETPVQKPVGQQPVKGMWEEEQAPVVKEAP
Vmax, PAA relative to Vmax, H2O2 ([2]; FIG. 13 legend): approximately twice | vmax and Km with PAA as substrate compared with hydrogen peroxide ([2]; constant NaCl 150 mM): higher vmax and Km than hydrogen peroxide
